Results reported in patent publication US20250186405A1, “Compound For Use In Treating Narcolepsy” (Alkermes, Inc., priority 2023, published 2025).
“And” between values parts separate entries of the source, which are not always exact repeats. Equal values may be shown once.

Tested on: subjects with narcolepsy type-2 (NT2)
Experiment: Part 5 NT2: Maintenance of Wakefulness Test (MWT) sleep latency
Type: in vivo, human
Settings: for Change from Day −1 in Average Sleep Latency on the MWT, LSM / Change from Day −1 in Average Sleep Latency on the MWT, LSM difference vs placebo: NT2, N = 9; for Average Sleep Latency on the MWT, Change from Day −1, Mean (SD) / Average Sleep Latency on the MWT, Change from Day −1, Median / Average Sleep Latency on the MWT, Dosing Day, Mean (SD) / Average Sleep Latency on the MWT, Dosing Day, Median: NT2, n = 9; for LS mean difference vs placebo in change from baseline, average MWT sleep latency: 2-8 hours post-dose
Protocol: On Day −1, approximately 25 hours prior to study drug administration (on Day 1), baseline assessments for Maintenance of Wakefulness Test (MWT) began and were collected in a series of trials over approximately 10 hours.
At specified time points (Parts 5 and 6), MWT assessments were performed and took up to 40 minutes to complete. During the MWT trials, subjects were seated in a bed or reclining chair in a darkened room with their back and head supported such that their neck is not uncomfortably flexed or extended. Subjects were instructed to sit still and remain awake for as long as possible during each 40-minute trial. If the subject fell asleep during a trial, they were awakened, and the trial was terminated. […] Upon completion of the trial, the subject returned to a normal environment/ambiance and remained awake (and were awakened if they fall asleep) until the next trial.
Once Parts 5 and 6 were completed, the EEG data recorded during the MWT, as well as the technician notes, were transferred to the EEG vendor for further analysis. Technician notes were also maintained for transfer to Sponsor at the end of the study. A precise assessment of sleep latency was conducted by an experienced sleep scorer from the EEG vendor, and spectral analysis was performed on the EEG data recorded during MWT to assess absolute and relative powers in standard frequency bands (i.e., qEEG). All raw data and analysis results were transferred to the Sponsor.
For the changes from baseline in average sleep latency across the first 4 sessions of the MWT, descriptive statistics were provided by dose level. Mixed model with repeated measure (MMRM) for the 4-period crossover design were conducted with the change from baseline as a dependent variable, and the dose level and the period as fixed factors. The differences in the least square means between each Compound A dose level and the placebo (each Compound A dose level—the placebo), and the 2-sided CIs were provided.
Evaluation of Compound A effects on average sleep latency across 4 timepoints of MWT (2-, 4-, 6-, and 8-hours post-dose) has been conducted at each of the crossover periods (Days 1, 3, 5 and 7), testing placebo, and active dose levels of 5, 12, and 25 mg in the patients with NT2 compared to placebo. At pre-dose baseline on Day −1, MWT assessment was taken at similar times (2-, 4-, 6-, and 8-hours) as planned on dosing days assuming a dosing time of approximately 9 AM. Mean (SD) of baseline MWT average across the 4 time points on Day −1 was 14.31 (11.201), with high variability observed for NT2 subjects.

## CS(=O)(=O)N[C@H]1CCCN2C(=O)COc3ccccc3C3CCC(CC3)OCC12 (stereo partly drawn) [Compound A, N-[(4S,4aR,7α,10α)-1,2,3,4,4a,5,7,8,9,10,16,17-dodecahydro-17-oxo-7,10-ethanopyrido[1,2-d][1,7,4]benzodioxaazacyclotridecin-4-yl]methanesulfonamide]
5 mg
  Change from Day −1 in Average Sleep Latency on the MWT, LSM: 11.68 min
  Change from Day −1 in Average Sleep Latency on the MWT, LSM difference vs placebo: 11.60 min
  Average Sleep Latency on the MWT, Change from Day −1, Mean (SD): 11.65 (14.736) minutes
  Average Sleep Latency on the MWT, Change from Day −1, Median: 8.50 min
  Average Sleep Latency on the MWT, Dosing Day, Mean (SD): 25.95 (12.409) minutes
  Average Sleep Latency on the MWT, Dosing Day, Median: 26.63 min
12 mg
  Change from Day −1 in Average Sleep Latency on the MWT, LSM: 18.63 min
  Change from Day −1 in Average Sleep Latency on the MWT, LSM difference vs placebo: 18.55 min
  Average Sleep Latency on the MWT, Change from Day −1, Mean (SD): 18.63 (10.892) minutes
  Average Sleep Latency on the MWT, Change from Day −1, Median: 19.50 min
  Average Sleep Latency on the MWT, Dosing Day, Mean (SD): 32.93 (9.836) minutes
  Average Sleep Latency on the MWT, Dosing Day, Median: 40.00 min
25 mg
  Change from Day −1 in Average Sleep Latency on the MWT, LSM: 21.04 min
  Change from Day −1 in Average Sleep Latency on the MWT, LSM difference vs placebo: 20.96 min
  Average Sleep Latency on the MWT, Change from Day −1, Mean (SD): 21.14 (12.126) minutes
  Average Sleep Latency on the MWT, Change from Day −1, Median: 17.25 min
  Average Sleep Latency on the MWT, Dosing Day, Mean (SD): 35.44 (7.720) minutes
  Average Sleep Latency on the MWT, Dosing Day, Median: 40.00 min
NT2, 5 mg
  LS mean difference vs placebo in change from baseline, average MWT sleep latency: 11.60 min and 11.6 min and 12 min
NT2, 12 mg
  observed mean MWT score over 8-hour period post-dose: ≥ 30 min
  LS mean difference vs placebo in change from baseline, average MWT sleep latency: 18.55 min and 18.6 min and 19 min
NT2, 25 mg
  observed mean MWT score over 8-hour period post-dose: ≥ 30 min
  LS mean difference vs placebo in change from baseline, average MWT sleep latency: 20.96 min and 21.0 min and 21 min
